Assay results: PubChem BioAssay (NCI)
Several values for one entry are separate records, joined by “and”; a condition that tells them apart may be missing. Equal entries are not always repeated.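 48-hour exposure; five concentrations; linearly interpolated endpoints. Abbreviation: GI50, concentration required for 50% inhibition of growth. At the TGI there is no net growth.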

What was measured:
Experiment in all cases: NCI anticancer screen, dose series, 48 h
[1] = system: A498 renal
[2] = system: A549 NSCLC
[3] = system: ACHN renal
[4] = system: COLO 205 colon
[5] = system: MCF7 breast
[6] = system: NCI-H522 lung
[7] = system: OVCAR-3 ovarian
[8] = system: PC-3 prostate
[9] = system: SK-MEL-5 melanoma
[10] = system: UO-31 renal

Structure (SMILES) | TGI [1] | TGI [2] [µM] | TGI [3] | TGI [4] | TGI [5] [µM] | TGI [6] | TGI [7] | TGI [8] [µM] | TGI [9] | TGI [10] | GI50 [2] | GI50 [4] | GI50 [6] | GI50 [7] | GI50 [10] | GI50 [1] [µM] | GI50 [3] [µM] | GI50 [5] [µM] | GI50 [8] [µM] | GI50 [9] [µM]
O=C1c2ccccc2C(=O)c2c1ccc1c3ccccc3n(-c3ccccc3)c21 | 71.9 µM | 58.1 | 41.2 µM | 34.2 µM | > 55.6 | 32.4 µM | 55 µM | > 100 | 29.9 µM | 55.1 µM | – | – | – | – | – | – | – | – | – | –
COc1cc2c3c(c4ccc(O)cc4c2cc1OC)[C@@H](O)[C@@H]1CCCN1C3 | 0.00625 µM | 0.0026 | 0.0381 µM | 0.145 µM | < 0.001 | 0.00781 µM | 0.00493 µM | 0.175 | 0.0206 µM | 0.0211 µM | – | – | – | – | – | – | – | – | – | –
COc1cc2c(cc1O)CCN[C@@]21CS[C@H]2c3c(OC(C)=O)c(C)c4c(c3C(COC1=O)N1C2C2NC(Cc3cc(C)c(OC)c(O)c32)[C@@H]1O)OCO4 (stereo partly specified) | < 10 nM and 6.8e-07 µg/mL and 0.0045 µg/mL | 10.4 | 12.9 µM and 2e-06 µg/mL and 0.0045 µg/mL | < 10 nM and 1.9e-07 µg/mL and 0.0045 µg/mL | 10.5 | < 10 nM and 0.0045 µg/mL | 0.00531 ng/mL | < 0.01 | < 10 nM and 2.8e-07 µg/mL and 0.0045 µg/mL | 21.3 nM and 0.255 µg/mL | 0.000368 ng/mL | 4.5 ng/mL | 4.5 ng/mL | 0.000341 ng/mL | 10.8 ng/mL | – | – | – | – | –
CC[C@H](C)[C@H](NC(=O)CN(C)C)C(=O)N(C)[C@H](C[C@@H](OC(C)=O)c1nc(C(=O)NC23C4C5C2C2C3C4C52C(=O)OC)cs1)C(C)C (stereo partly specified) | 21.5 µM | > 33.2 | > 33.2 µM | 5.53 µM | > 33.2 | > 10.8 µM | 1.31 µM | > 33.2 | 6.75 µM | > 33.2 µM | 2.12 µM | 0.247 µM | 0.11 µM | 0.113 µM | 3.6 µM | 0.993 | 2.25 | 0.134 | 0.768 | 0.299
O=C(NCCN1CCOCC1)c1cc2c(Oc3ccc(NC(=O)C4(C(=O)Nc5ccc(F)cc5)CC4)cc3)ccnc2[nH]1 | 11.8 µM | 48.6 | > 100 µM | > 48.7 µM | 33.2 | 28.1 µM | > 85.7 µM | 64.6 | 12.4 µM | > 32.9 µM | 4.9 µM | 4.48 µM | 7.69 µM | 19 µM | 1.15 µM | 0.833 | 7.84 | 2.36 | 5.77 | 3.03
COc1cc2c(c3oc4c(O)cccc4c(=O)c13)CC(C(C)(O)CCl)O2 (stereo unspecified) | 37.3 µM | 13.6 | 1.87 µM | 1.85 µM | 12.9 | 5.94 µM | 7.43 µM | 7.76 | 1.5 µM | 4.9 µM | – | – | – | – | – | – | – | – | – | –
COc1cccc(/C=C\C(=O)c2ccccc2)c1 | 26.2 µM | 40.5 | 23.4 µM | 40.8 µM | 18.6 | 4.62 µM | 13.4 µM | 26.2 | 24.8 µM | 5.96 µM | 15 µM | 7.82 µM | 2.06 µM | 3.04 µM | 2.18 µM | 11.4 | 7.34 | 2.57 | 3.73 | 9.4
Nc1nc(N)c(CCCCc2ccc([N+](=O)[O-])cc2)c(N)n1 | > 100 µM | > 100 | > 100 µM | > 100 µM | > 100 | > 100 µM | > 100 µM | > 100 | > 100 µM | > 100 µM | – | – | – | – | – | – | – | – | – | –
COC(=O)[C@]12CC[C@@H](C)[C@H](C)[C@@H]1C1=CC[C@@H]3[C@@]4(C)C[C@@H](OC(C)=O)[C@H](OC(C)=O)[C@@](C)(COC(C)=O)[C@@H]4[C@H](O)C[C@@]3(C)[C@]1(C)CC2 | 68.5 µM | > 100 | > 100 µM | 6.25 µM | 27.9 | 89 µM | > 100 µM | > 100 | 1.72 µM | – | 2.06 µM | 0.513 µM | 1.92 µM | 2.3 µM | – | 1.92 | 2.71 | 1.57 | 0.535 | 0.367
COc1ccc2c(Cl)cc(NC(=S)Nc3ccccc3)nc2c1 | 48.1 µM | > 100 | > 100 µM | > 100 µM | > 100 | 34.8 µM | > 100 µM | 66.4 | > 100 µM | – | – | – | – | – | – | – | – | – | – | –
CC1=C(\C=C/C(C)=C/C=C/C(C)=C/C=C/C=C(C)\C=C\C=C(C)/C=C/C2=C(C)CCCC2(C)C)C(C)(C)CCC1 | > 100 µM | – | > 100 µM | > 100 µM | > 100 | > 100 µM | > 100 µM | > 100 | > 100 µM | > 100 µM | – | – | – | – | – | – | – | – | – | –
